Reference: US20110136911A1 (The Feinstein Institute for Medical Research, priority 2007, published 2011)

Experiments:
[1] = test system: cecal ligation and puncture (CLP) model of sepsis; assay: Cecal ligation and puncture (CLP) model of sepsis; format: in vivo, mice
Procedure: In anesthetized male Balb/C mice (ketamine 100 mg/kg and xylazine 8 mg/kg administered intramuscularly), abdominal access was gained via a midline incision. The cecum was isolated and ligated with a 6-0 silk ligature below the ileocecal valve, and the cecum punctured once with a 22 G needle, stool (approximately 1 mm^3) extruded from the hole, and the cecum placed back into the abdominal cavity. The abdomen was closed with two layers of 6-0 Ethilon sutures. Antibiotics were administered immediately after CLP (Premaxin 0.5 mg/kg, subcutaneously, in a total volume of 0.5 ml/mouse) and a single dose of resuscitative fluid (normal saline solution) was administered subcutaneously (20 ml/kg-body weight) immediately after CLP. […] Additionally, two injections were given on day 2 and day 3.
The cecal ligation and puncture experiment was repeated in a second group of animals. The experimental procedure was identical to that used in the preceding example.

[2] = test system: leukocyte recruitment into air pouch; assay: Air pouch model of acute inflammation (carrageenan); format: in vivo, mice; details: 4 mg/kg i.p. 15 min before 1% carrageenan, exudate after five hours
Procedure: Air pouches were produced according to standard procedures (Garcia-Ramallo et al., 2002) using C57bk6 mice (wild-type) or strain-matched mice lacking both copies of the MIF gene (MIF−/−) by injecting sterile air s.c. on day 0 (6 ml) and day 3 (3 ml). […] 15 min. later the animals were challenged by injecting 1 ml 1% carrageenan (in PBS) into the air pouch cavity. Five hours after carrageenan injection the animals were sacrificed, the pouches washed with PBS, exudates collected, and the total number of infiltrating cells quantitated.

[3] = test system: LPS-stimulated RAW 267.4 cells; assay: TNF secretion from LPS-stimulated RAW macrophages (ELISA); format: cell-based; details: 0.1 μg/ml LPS
Procedure: After 16 h, cell culture supernatants were collected for determination of TNF concentration by enzyme-linked immunosorbent assay (R & D Systems).

[4] = cited from earlier work

SMILES | survival ([1]; male Balb/C mice, 4 mg/kg i.p. 24 hours after CLP, further injections on day 2 and day 3, n=10, vehicle 2/10) | survival, repeat experiment in a second group of animals ([1]; procedure identical to the first CLP experiment, FIG. 4) | leukocyte recruitment (number of infiltrating cells), wild-type mice ([2]; C57bk6 wild-type, p<0.04 relative to vehicle) | leukocyte recruitment (number of infiltrating cells), MIF knockout mice ([2]; MIF−/− mice, n.s.) | IC50 ([3]; RAW267.4, 30 minutes preincubation, supernatants after 16 h, read-out: IC50, inhibition of the release of TNFα) [nM] | free (unbound) hormone as percentage of the total hormone in plasma [4] | inhibitory effect on TNF release compared with ISO-1 ([3]; 0.01-50 μM, 16 h)
N[C@H](Cc1cc(I)c(Oc2cc(I)c(O)c(I)c2)c(I)c1)C(=O)O [D-T4, dextrothyroxine] | 6/10 | dramatically increases survival | inhibits leukocyte recruitment | not in MIF knockout animals | 1000 |  | 
N[C@@H](Cc1cc(I)c(Oc2cc(I)c(O)c(I)c2)c(I)c1)C(=O)O [L-T4, L-thyroxine] |  |  |  |  |  | about 0.03% | more potent than ISO-1
